Data as given in patent US20120029187A1, “HALOALKYLSULFONANILIDE DERIVATIVE” (Nissan Chemical Industries, Ltd., priority 2009, published 2012).

How the values were obtained:
Format in all cases: in vivo
ducksalad [1] = assay: Test Example 1: herbicidal effects in preemergence treatment under submerged conditions; settings: dose 2.52 g/a
Outline: (§1)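 Alluvial soil flooded to 4 cm depth; barnyardgrass, bulrush and ducksalad sown and 2.5-leaf rice seedlings transplanted. Same day, water-diluted emulsifiable concentrates applied to the water surface at set doses (g/a). Kept at 25–30 °C in greenhouse; effects scored 0–5 by mortality after three weeks.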

bulrush [2] = assay: as above; settings: dose 2.52 g/a
Outline: as §1

barnyardgrass [3] = assay: as above; settings: dose 2.52 g/a
Outline: as §1

ducksalad [4] = assay: Test Example 2: herbicidal effects during the vegetation period under submerged conditions; settings: treatment during the vegetation period under submerged conditions; dose 2.52 g/a
Outline: (§2)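 Barnyardgrass, bulrush and ducksalad were co-sown in alluvial soil flooded to 4 cm and grown in a greenhouse at 25 to 30° C. At the 1- or 2-leaf stage, water-diluted emulsifiable concentrates went onto the water surface at set doses (g/a). Herbicidal effect was scored three weeks later on a graded scale.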

bulrush [5] = assay: as above; settings: treatment during the vegetation period under submerged conditions; dose 2.52 g/a
Outline: as §2

barnyardgrass [6] = assay: as above; settings: treatment during the vegetation period under submerged conditions; dose 2.52 g/a
Outline: as §2

common chickweed [7] = assay: Test Example 4: herbicidal effect in foliage treatment; settings: three weeks after application
Outline: (§3)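 Seeds sown in sterilized diluvial soil under ~1.5 cm soil cover and grown 14 days in a greenhouse at 25 to 30° C. Emulsifiable concentrates diluted with water were then sprayed uniformly on foliage at predetermined doses (g/a). Herbicidal effect was scored three weeks after application on a graded evaluation scale.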

common lambsquater [8] = assay: as above; settings: three weeks after application
Outline: as §3

beadstraw [9] = assay: as above; settings: three weeks after application
Outline: as §3

posumbu knotweed [10] = assay: as above; settings: three weeks after application
Outline: as §3

water foxtail [11] = assay: as above; settings: three weeks after application
Outline: as §3

wild oat [12] = assay: as above; settings: three weeks after application
Outline: as §3

large crabgrass [13] = assay: as above; settings: three weeks after application
Outline: as §3

barnyardgrass [14] = assay: as above; settings: three weeks after application
Outline: as §3

Italian ryegrass [15] = assay: as above; settings: three weeks after application
Outline: as §3

velvetleaf [16] = assay: as above; settings: three weeks after application
Outline: as §3

giant foxtail [17] = assay: as above; settings: three weeks after application
Outline: as §3

redroot pigweed [18] = assay: as above; settings: three weeks after application
Outline: as §3

common ragweed [19] = assay: as above; settings: three weeks after application
Outline: as §3

common chickweed [20] = assay: Test Example 3: herbicidal effects in soil treatment
Outline: (§4)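 Seeds were sown in sterilized diluvial soil and covered with about 1.5 cm of soil. Compounds, formulated as emulsifiable concentrates and diluted with water, were sprayed evenly over the soil surface at set doses in g/a. Herbicidal effect was scored on a rating scale three weeks later.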

common lambsquater [21] = assay: as above
Outline: as §4

beadstraw [22] = assay: as above
Outline: as §4

posumbu knotweed [23] = assay: as above
Outline: as §4

water foxtail [24] = assay: as above
Outline: as §4

wild oat [25] = assay: as above
Outline: as §4

large crabgrass [26] = assay: as above
Outline: as §4

barnyardgrass [27] = assay: as above
Outline: as §4

Italian ryegrass [28] = assay: as above
Outline: as §4

velvetleaf [29] = assay: as above
Outline: as §4

giant foxtail [30] = assay: as above
Outline: as §4

redroot pigweed [31] = assay: as above
Outline: as §4

common ragweed [32] = assay: as above
Outline: as §4

transplanted rice = assay: Test Example 1: preemergence treatment under submerged conditions, effect on crop; settings: dose 2.52 g/a
Outline: as §1

## CC(C)COC(=O)N(c1ccccc1CN1CC(C)OCC1=O)S(=O)(=O)C(F)(F)F (centres unmarked) [Compound I-9]
Ducksalad [1]
  C: ducksalad, herbicidal effect (evaluation scale 0-5): 5 (mortality of 90% or above (nearly complete death))
Bulrush [2]
  B: bulrush, herbicidal effect (evaluation scale 0-5): 5 (mortality of 90% or above (nearly complete death))
Barnyardgrass [3]
  A: barnyardgrass, herbicidal effect (evaluation scale 0-5): 5 (mortality of 90% or above (nearly complete death))
Ducksalad [4]
  C: ducksalad, herbicidal effect (evaluation scale 0-5): 5 (mortality of 90% or above (nearly complete death))
Bulrush [5]
  B: bulrush, herbicidal effect (evaluation scale 0-5): 5 (mortality of 90% or above (nearly complete death))
Barnyardgrass [6]
  A: barnyardgrass, herbicidal effect (evaluation scale 0-5): 5 (mortality of 90% or above (nearly complete death))
Common chickweed [7]; dose 3.2 g/a
  N: common chickweed, herbicidal effect: 3 (mortality of at least 40% and less than 70%)
Common lambsquater [8]; dose 3.2 g/a
  L: common lambsquater, herbicidal effect: 0 (mortality of less than 5% (almost ineffective))
Beadstraw [9]; dose 3.2 g/a
  O: beadstraw, herbicidal effect: 4 (mortality of at least 70% and less than 90%)
Posumbu knotweed [10]; dose 3.2 g/a
  M: posumbu knotweed, herbicidal effect: 0 (mortality of less than 5% (almost ineffective))
Water foxtail [11]; dose 3.2 g/a
  G: water foxtail, herbicidal effect: 5 (mortality of 90% or above (nearly complete death))
Wild oat [12]; dose 3.2 g/a
  F: wild oat, herbicidal effect: 0 (mortality of less than 5% (almost ineffective))
Large crabgrass [13]; dose 3.2 g/a
  D: large crabgrass, herbicidal effect: 5 (mortality of 90% or above (nearly complete death))
Barnyardgrass [14]; dose 3.2 g/a
  A: barnyardgrass, herbicidal effect: 5 (mortality of 90% or above (nearly complete death))
Italian ryegrass [15]; dose 3.2 g/a
  H: Italian ryegrass, herbicidal effect: 3 (mortality of at least 40% and less than 70%)
Velvetleaf [16]; dose 3.2 g/a
  I: velvetleaf, herbicidal effect: 5 (mortality of 90% or above (nearly complete death))
Giant foxtail [17]; dose 3.2 g/a
  E: giant foxtail, herbicidal effect: 3 (mortality of at least 40% and less than 70%)
Redroot pigweed [18]; dose 3.2 g/a
  K: redroot pigweed, herbicidal effect: 2 (mortality of at least 20% and less than 40%)
Common ragweed [19]; dose 3.2 g/a
  J: common ragweed, herbicidal effect: 4 (mortality of at least 70% and less than 90%)
Common chickweed [20]; dose 3.2 g/a
  N: common chickweed, herbicidal effect (evaluation scale 0-5): 5 (mortality of 90% or above (nearly complete death))
Common lambsquater [21]; dose 3.2 g/a
  L: common lambsquater, herbicidal effect (evaluation scale 0-5): 0 (mortality of less than 5% (almost ineffective))
Beadstraw [22]; dose 3.2 g/a
  O: beadstraw, herbicidal effect (evaluation scale 0-5): 4 (mortality of at least 70% and less than 90%)
Posumbu knotweed [23]; dose 3.2 g/a
  M: posumbu knotweed, herbicidal effect (evaluation scale 0-5): 0 (mortality of less than 5% (almost ineffective))
Water foxtail [24]; dose 3.2 g/a
  G: water foxtail, herbicidal effect (evaluation scale 0-5): 5 (mortality of 90% or above (nearly complete death))
Wild oat [25]; dose 3.2 g/a
  F: wild oat, herbicidal effect (evaluation scale 0-5): 3 (mortality of at least 40% and less than 70%)
Large crabgrass [26]; dose 3.2 g/a
  D: large crabgrass, herbicidal effect (evaluation scale 0-5): 5 (mortality of 90% or above (nearly complete death))
Barnyardgrass [27]; dose 3.2 g/a
  A: barnyardgrass, herbicidal effect (evaluation scale 0-5): 5 (mortality of 90% or above (nearly complete death))
Italian ryegrass [28]; dose 3.2 g/a
  H: Italian ryegrass, herbicidal effect (evaluation scale 0-5): 3 (mortality of at least 40% and less than 70%)
Velvetleaf [29]; dose 3.2 g/a
  I: velvetleaf, herbicidal effect (evaluation scale 0-5): 5 (mortality of 90% or above (nearly complete death))
Giant foxtail [30]; dose 3.2 g/a
  E: giant foxtail, herbicidal effect (evaluation scale 0-5): 4 (mortality of at least 70% and less than 90%)
Redroot pigweed [31]; dose 3.2 g/a
  K: redroot pigweed, herbicidal effect (evaluation scale 0-5): 4 (mortality of at least 70% and less than 90%)
Common ragweed [32]; dose 3.2 g/a
  J: common ragweed, herbicidal effect (evaluation scale 0-5): 5 (mortality of 90% or above (nearly complete death))
Transplanted rice
  a: transplanted rice, effect on crop (evaluation scale 0-5): 0 (mortality of less than 5% (almost ineffective))

## CCOC(=O)N(c1ccccc1CN1CCSCC1=O)S(=O)(=O)C(F)(F)F [Compound I-18, 4-[2-(N-ethoxycarbonyl-N-trifluoromethanesulfonyl)aminobenzyl]-1,4-thiazinan-3-one]
Ducksalad [1]
  C: ducksalad, herbicidal effect (evaluation scale 0-5): 5 (mortality of 90% or above (nearly complete death))
Bulrush [2]
  B: bulrush, herbicidal effect (evaluation scale 0-5): 5 (mortality of 90% or above (nearly complete death))
Barnyardgrass [3]
  A: barnyardgrass, herbicidal effect (evaluation scale 0-5): 5 (mortality of 90% or above (nearly complete death))
Ducksalad [4]
  C: ducksalad, herbicidal effect (evaluation scale 0-5): 4 (mortality of at least 70% and less than 90%)
Bulrush [5]
  B: bulrush, herbicidal effect (evaluation scale 0-5): 5 (mortality of 90% or above (nearly complete death))
Common chickweed [7]; dose 6.3 g/a
  N: common chickweed, herbicidal effect: 4 (mortality of at least 70% and less than 90%)
Common lambsquater [8]; dose 6.3 g/a
  L: common lambsquater, herbicidal effect: 4 (mortality of at least 70% and less than 90%)
Beadstraw [9]; dose 6.3 g/a
  O: beadstraw, herbicidal effect: 4 (mortality of at least 70% and less than 90%)
Posumbu knotweed [10]; dose 6.3 g/a
  M: posumbu knotweed, herbicidal effect: 3 (mortality of at least 40% and less than 70%)
Water foxtail [11]; dose 6.3 g/a
  G: water foxtail, herbicidal effect: 5 (mortality of 90% or above (nearly complete death))
Wild oat [12]; dose 6.3 g/a
  F: wild oat, herbicidal effect: 3 (mortality of at least 40% and less than 70%)
Large crabgrass [13]; dose 6.3 g/a
  D: large crabgrass, herbicidal effect: 4 (mortality of at least 70% and less than 90%)
Barnyardgrass [14]; dose 6.3 g/a
  A: barnyardgrass, herbicidal effect: 5 (mortality of 90% or above (nearly complete death))
Italian ryegrass [15]; dose 6.3 g/a
  H: Italian ryegrass, herbicidal effect: 4 (mortality of at least 70% and less than 90%)
Velvetleaf [16]; dose 6.3 g/a
  I: velvetleaf, herbicidal effect: 4 (mortality of at least 70% and less than 90%)
Giant foxtail [17]; dose 6.3 g/a
  E: giant foxtail, herbicidal effect: 4 (mortality of at least 70% and less than 90%)
Redroot pigweed [18]; dose 6.3 g/a
  K: redroot pigweed, herbicidal effect: 4 (mortality of at least 70% and less than 90%)
Common ragweed [19]; dose 6.3 g/a
  J: common ragweed, herbicidal effect: 3 (mortality of at least 40% and less than 70%)
Common chickweed [20]; dose 6.3 g/a
  N: common chickweed, herbicidal effect (evaluation scale 0-5): 4 (mortality of at least 70% and less than 90%)
Common lambsquater [21]; dose 6.3 g/a
  L: common lambsquater, herbicidal effect (evaluation scale 0-5): 5 (mortality of 90% or above (nearly complete death))
Beadstraw [22]; dose 6.3 g/a
  O: beadstraw, herbicidal effect (evaluation scale 0-5): 3 (mortality of at least 40% and less than 70%)
Posumbu knotweed [23]; dose 6.3 g/a
  M: posumbu knotweed, herbicidal effect (evaluation scale 0-5): 3 (mortality of at least 40% and less than 70%)
Water foxtail [24]; dose 6.3 g/a
  G: water foxtail, herbicidal effect (evaluation scale 0-5): 5 (mortality of 90% or above (nearly complete death))
Wild oat [25]; dose 6.3 g/a
  F: wild oat, herbicidal effect (evaluation scale 0-5): 0 (mortality of less than 5% (almost ineffective))
Large crabgrass [26]; dose 6.3 g/a
  D: large crabgrass, herbicidal effect (evaluation scale 0-5): 4 (mortality of at least 70% and less than 90%)
Barnyardgrass [27]; dose 6.3 g/a
  A: barnyardgrass, herbicidal effect (evaluation scale 0-5): 5 (mortality of 90% or above (nearly complete death))
Italian ryegrass [28]; dose 6.3 g/a
  H: Italian ryegrass, herbicidal effect (evaluation scale 0-5): 4 (mortality of at least 70% and less than 90%)
Velvetleaf [29]; dose 6.3 g/a
  I: velvetleaf, herbicidal effect (evaluation scale 0-5): 1 (mortality of at least 5% and less than 20%)
Giant foxtail [30]; dose 6.3 g/a
  E: giant foxtail, herbicidal effect (evaluation scale 0-5): 5 (mortality of 90% or above (nearly complete death))
Redroot pigweed [31]; dose 6.3 g/a
  K: redroot pigweed, herbicidal effect (evaluation scale 0-5): 4 (mortality of at least 70% and less than 90%)
Common ragweed [32]; dose 6.3 g/a
  J: common ragweed, herbicidal effect (evaluation scale 0-5): 4 (mortality of at least 70% and less than 90%)
Transplanted rice
  a: transplanted rice, effect on crop (evaluation scale 0-5): 0 (mortality of less than 5% (almost ineffective))
